From paper PMC8534003, “The Chemokine-Based Peptide, CXCL9(74-103), Inhibits Angiogenesis by Blocking Heparan Sulfate Proteoglycan-Mediated Signaling of Multiple Endothelial Growth Factors” (Cancers, 2021)
pKd: −log10 of the molar value. “Also recorded” adds a separate entry of the source.

How the values were obtained:
[1] = reference not given at the value; read-out: KD, heparin binding; cited from earlier work
Text: In our present study, we wanted to explore the potential of CXCL9(74-103), a high affinity GAG-binding peptide, to interfere with angiogenesis by targeting growth factor-induced signaling cascades and associated processes. […] The obtained KD value lies within the range of the concentrations that were applied in the different in vivo and in vitro assays reported here. FGF-2-mediated proliferation, chemotaxis and sprouting in vitro was diminished by CXCL9(74-103). Also in vivo, CXCL9(74-103) treatment attenuated FGF-2-mediated neovascularization in the Matrigel plug assay. The inhibitory mechanism responsible for countering FGF-2 could be that (1) by direct interaction with FGF-2, CXCL9(74-103) can t ...

[2] = test system: human microvascular endothelial cells (HMVECs); test: Endothelial cell proliferation assay (MTT or ATP lite); assay type: cell-based; conditions: peptide 3 µM, 3 to 4 days, HMVECs, 1% FCS, mean ± SEM, n ≥ 4
Procedure: The ability of the CXCL9-derived peptides to inhibit growth factor-induced proliferation of endothelial cells was assessed. HMVECs were seeded at 5 × 10^3 cells/well in EBM™-2 medium containing 1% (v/v) FCS (proliferation medium). After settling of the cells, they were stimulated with EGF, VEGF165 (both 5 ng/mL) or FGF-2 (3 ng/mL) as a single stimulus or in combination with CXCL9(86-103) or CXCL9(74-103) at 0.3 or 3 µM in proliferation medium or left untreated. HMVECs were also treated with 0.3 or 3 µM of CXCL9(74-103) or 3 µM of CXCL9(86-103) alone to assess the effect of CXCL9-derived peptide treatment on spontaneous proliferation. After 3 to 4 days, a 3-(4,5-dimethylthiazol-2-yl)-2,5-diphenyl tetrazolium bromide (MTT) or ATP lite assay was performed. The ATP lite assay was performed according to the manufacturer’s instructions (Perkin Elmer, Waltham, MA). When MTT was used as substrate, the medium was replaced with 200 µL of MTT solution (RPMI without phenol red containing 0.4 g/L MTT) and the cells were incubated at 37 °C and 5% CO2 in the dark for 4 hours. Then, the MTT solution was discarded and the formed formazan crystals were dissolved in 200 µL acidic propanol [0.04 M HCl, 0.1% (v/v) NP-40 in isopropanol] under continuous shaking in the dark for 10 min. The optical densities were measured at 570 nm and 630 nm (reference wavelength).

HMVEC spheroids = test: Spheroid sprouting assay; assay type: cell-based, human; conditions: FGF-2 10 ng/mL, peptide 3 µM, 16 hours; n = 5 experiments
Procedure: A 1:5 mixture of endothelial cells (4 × 10^4 cells/mL) and methylcellulose (Sigma-Aldrich, Saint Louis, MO, USA; 12 mg/mL in EBM™-2 basal medium) in EBM™-2 cell culture medium was prepared. Drops of 1 × 10^3 HMVECs were plated on a petri dish and allowed to form single spheroids in hanging droplets at 37 °C, 5% CO2 for 24 h. Spheroids were collected, sedimented by centrifugation and resuspended in a mixture of 24 mg/mL methylcellulose in basal EBM™-2, 1 mg/mL collagen type I (BD Biosciences, San Jose, CA, USA), 2.5 mg/mL NaHCO3 and 10 mM NaOH. The suspension was plated in a 96-well plate and the collagen was allowed to polymerize at 37 °C, 5% CO2 for 30 min. Spheroids were left untreated or stimulated with 0.3 or 3 µM of CXCL9(74-103) or 3 µM of CXCL9(86-103) for 15 min prior to addition of 10 ng/mL FGF-2 or 10 ng/mL EGF in EBM™-2 + 3% (v/v) FCS. In some experiments, HMVECs were pretreated with heparinase II (vide infra). After 16 hours, spheroid sprouting was assessed with an inverted Axiovert 200M microscope (Zeiss, Germany) through a 10× objective. The average number of sprouts was calculated and the average sprout length per spheroid was measured using Fiji software.
Sprouting experiments examining the dependency on HS binding for the inhibitory action of CXCL9(74-103) were performed as described above (vide supra). […]

[3] = test system: human microvascular endothelial cells (HMVECs); test: xCELLigence adhesion assay; assay type: cell-based; conditions: VEGF165 50 ng/mL, peptide 3 µM, 1 h, gelatin coat; n = 2–6
Procedure: The wells of an E-plate (ACEA Biosciences, Inc.) were washed and coated with 0.1% (v/v) gelatin in phosphate-buffered saline (PBS) at 37 °C for 1 h. Following a washing step, wells were incubated with 0.1% (v/v) bovine serum albumin (BSA) in PBS at 37 °C for 1 h. After washing, 50 µL basal MCDB131 medium was added and the plate was allowed to equilibrate at 37 °C. HMVECs were harvested and seeded at 4 × 10^4 cells/well together with 50 ng/mL VEGF165 with or without 0.03, 0.3 or 3 µM of CXCL9(74-103) or 3 µM of CXCL9(86-103) in 100 µL control medium (vide supra). Real-time changes in electrical impedance depicted as cell indices, as measure for cell adhesion and spreading, were analyzed using the xCELLigence® RTCA DP System. The adhesion of HMVECs was analyzed 1 h after seeding.

[4] = test system: diabetes-induced vascular permeability, Sprague-Dawley rats; test: Retinal vascular permeability in streptozotocin-induced diabetic rats; assay type: in vivo, rat; conditions: intravitreal, equimolar CXCL9(74-103) 30 µg or CXCL9(86-103) 18 µg, two weeks, n = 12–15
Procedure: Male Sprague-Dawley rats (210–240 g) were fasted overnight and injected intraperitoneally (i.p.) with streptozotocin (55 mg/kg body weight, dissolved in citrate buffer, pH 4.5) to induce diabetes. After 3 days, the animals were anesthetized, diabetes was confirmed and the vitreous of the right eye was injected with equimolar amounts of CXCL9(74-103) (30 µg), CXCL9(86-103) (18 µg) or PBS (5 µL/injection). Diabetes-induced breakdown of the blood-retinal barrier as a consequence of increased vascular permeability was evaluated in retinas two weeks after streptozotocin injection, as previously described. Briefly, 30 min prior to sacrifice, fluorescein isothiocyanate (FITC)-conjugated dextran of 3-5 kDa (Sigma-Aldrich) was intravenously (i.v.) injected. After collection of a blood sample, rats were perfused with PBS. The retinas were excised, weighed and homogenized. The fluorescence in the retina lysates was measured using a SpectraMax® Gemini™ XPS system. For normalization of the data, the following equation was used to express the obtained results: Retinal FITC-dextran (µg)/retinal weight (g) Plasma FITC-dextran concentration (µg/µL) × circulation time (h)

KKVLKVRKSQRSRQKKTT [CXCL9(86-103)]
pKd [1]: 6.09 | EGF-induced proliferation ([2]; EGF 5 ng/mL): could not significantly alter | FGF-2-induced proliferation ([2]; FGF-2 3 ng/mL): significantly attenuated | VEGF165-induced proliferation ([2]; VEGF165 5 ng/mL): could not significantly alter | sprout outgrowth induced by FGF-2 (HMVEC spheroids): had no effect on sprout outgrowth induced by FGF-2 | VEGF165-induced endothelial cell adhesion [3]: No effect on VEGF-induced adhesion | retinal vascular permeability (FITC-dextran leakage) [4]: tended to decrease the vascular leakage, but this was not significant; also recorded: could not significantly improve diabetes-induced vascular leakage
